From patent US12312359B2 (Vitae Pharmaceuticals, LLC, priority 2016, dated 2025)

Molecular target: T1, biotinylated wild-type menin and MLL-AF9 fusion protein (menin/MLL binding) (Homo sapiens, UniProt O00255)
T1 construct: made in house; host or cells: menin: E. coli; MLL-AF9-FLAG: HEK293 cells, used as cleared lysate
T1 sequence (O00255 1-610): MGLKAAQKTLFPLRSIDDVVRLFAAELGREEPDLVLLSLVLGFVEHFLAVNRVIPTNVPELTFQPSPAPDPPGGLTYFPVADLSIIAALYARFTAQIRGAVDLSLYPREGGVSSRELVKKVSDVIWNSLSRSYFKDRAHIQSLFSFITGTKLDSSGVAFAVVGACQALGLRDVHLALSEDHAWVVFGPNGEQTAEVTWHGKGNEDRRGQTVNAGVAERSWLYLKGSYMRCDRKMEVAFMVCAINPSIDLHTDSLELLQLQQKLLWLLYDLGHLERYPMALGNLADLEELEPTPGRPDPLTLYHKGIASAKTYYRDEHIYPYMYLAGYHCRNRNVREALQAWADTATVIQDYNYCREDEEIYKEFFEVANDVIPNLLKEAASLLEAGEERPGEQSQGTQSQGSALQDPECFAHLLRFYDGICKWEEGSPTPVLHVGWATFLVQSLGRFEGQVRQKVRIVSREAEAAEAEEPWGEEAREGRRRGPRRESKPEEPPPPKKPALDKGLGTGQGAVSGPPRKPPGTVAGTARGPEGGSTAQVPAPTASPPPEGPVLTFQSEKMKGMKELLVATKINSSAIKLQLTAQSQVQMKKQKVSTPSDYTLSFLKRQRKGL
Assay: Assay 1: menin/MLL binding AlphaLISA assay, wild-type menin
Settings: Table 30; column head does not say wild-type or mutated menin
Experimental: Potencies of inhibitor compounds against menin/MLL binding were assessed by AlphaLISA assay using biotinylated (1) wild-type menin or (2) mutated menin (described in Huang et al, 2012, Nature, 482, 542-546) and MLL-AF9 fusion protein bearing a FLAG epitope at its C-terminus. Menin proteins were expressed in E. coli and covalently modified with biotin using EZ-Link™ Sulfo-NHS-Biotin (ThermoFisher Cat.No. 21217) according to manufacturer's protocol. MLL1-1,396 fused to AF91-92 and the C-terminal FLAG peptide was expressed in HEK293 cells and used as a lysate cleared at 21,000×g for 10 min.
Compounds (2 μL of solutions in DMSO) were dispensed in white 96-well half-area plates (Corning Cat.No. 3693) and incubated for 30 min at RT with 5 nM biotinylated menin and appropriate amount of MLL-AF9-FLAG lysate in 40 μL of 50 mM Tris-HCl buffer pH 7.4 containing 5% (v/v) DMSO, 50 mM NaCl, 0.01% (w/v) bovine serum albumin (BSA) and 1 mM DTT. To this incubation mixture, 40 μL of AlphaLISA anti-FLAG acceptor (PerkinElmer Cat.No. AL112C) and streptavidin donor (PerkinElmer Cat.No. 6760002) beads (10 μg/mL each) was added and incubation continued at RT for 60 min. Alpha (amplified luminescent proximity homogeneous assay) signal was measured on an Envision multi-label plate reader at the end of the incubation. All steps were conducted under dim fluorescent light.
These percent inhibition values were regressed against compound concentrations in the assay using four parameter logit non-linear curve fitting (XLFit, IDBS). The IC50 values were derived from the curve fitting as inflection points on the dose-response curves and are set out in Table 30 below.

IC50 [nM] | SMILES
< 100 | CCc1ccccc1-c1cc(F)ccc1Nc1cncnc1N1CCC2(CC1)CN(CC(C)(C)O)C2 [Example 71, 1-(7-(5-((2′-ethyl-5-fluoro-[1,1′-biphenyl]-2-yl)amino)pyrimidin-4-yl)-2,7-diazaspiro[3.5]nonan-2-yl)-2-methylpropan-2-ol]
100 to 1000 | CC(C)n1nccc1-c1cc(F)ccc1Oc1cncnc1N1CCC2(CCN(C(=O)C(N)C3CCCCC3)C2)C1 (single isomer, unassigned) [Example 206C, 2-amino-2-cyclohexyl-1-(7-(5-(4-fluoro-2-(1-isopropyl-1H-pyrazol-5-yl)phenoxy)pyrimidin-4-yl)-2,7-diazaspiro[4.4]nonan-2-yl)ethanone]
100 to 1000 | CC(C)N(C(=O)c1cc(F)ccc1Oc1cncnc1N1CCC2(CC(O)C(Cc3ccc4[nH]c(=O)[nH]c4c3)C2)C1)C(C)C (single isomer, unassigned) [Example 23B, 5-fluoro-2-((4-(7-hydroxy-8-((2-oxo-2,3-dihydro-1H-benzo[d]imidazol-5-yl)methyl)-2-azaspiro[4.4]nonan-2-yl)pyrimidin-5-yl)oxy)-N,N-diisopropylbenzamide]
100 to 1000 | CC(C)n1nccc1-c1cc(F)ccc1Oc1cnc(Cl)nc1N1CCC2(CCN(Cc3ccc4[nH]c(=O)[nH]c4c3)C2)C1 (stereo not shown) [Example 46, 5-((7-(2-chloro-5-(4-fluoro-2-(1-isopropyl-1H-pyrazol-5-yl)phenoxy)pyrimidin-4-yl)-2,7-diazaspiro[4.4]nonan-2-yl)methyl)-1,3-dihydro-2H-benzo[d]imidazol-2-one]
< 100 | CCc1ccccc1-c1cc(F)ccc1Nc1cncnc1N1CCC2(CC1)CN(CC(C)C)C2 [Example 247, N-(2′-ethyl-S-fluoro-[1,1′-biphenyl]-2-yl)-4-(2-isobutyl-2,7-diazaspiro[3.5]nonan-7-yl) pyrimidin-5-amine]
< 100 | CC(C)NS(=O)(=O)c1cc(F)ccc1Oc1cncnc1N1CC2(CN(CC3CCOCC3)C2)C1 [Example 32, 5-fluoro-N-isopropyl-2-((4-(6-((tetrahydro-2H-pyran-4-yl)methyl)-2,6-diazaspiro[3.3]heptan-2-yl)pyrimidin-5-yl)oxy)benzenesulfonamide]
≥ 1000 | N#Cc1ccc(-c2cc(F)ccc2Oc2cncnc2N2CCC3(CCN(c4nc(C(=O)O)cs4)C3)C2)c(C2CC2)c1 (stereo not shown) [Example 56, 2-(7-(5-((4′-cyano-2′-cyclopropyl-5-fluoro-[1,1′-biphenyl]-2-yl)oxy)pyrimidin-4-yl)-2,7-diazaspiro[4.4]nonan-2-yl)thiazole-4-carboxylicacid]
100 to 1000 | CNC(=O)[C@H]1CC[C@H](CN2CCC3(CC2)CN(c2ncncc2Oc2ccc(F)cc2C(=O)N(C)C(C)C)C3)CC1 [Example 21, 5-fluoro-N-isopropyl-N-methyl-2-((4-(7-(((1r,4r)-4-(methylcarbamoyl)cyclohexyl)methyl)-2,7-diazaspiro[3.5]nonan-2-yl)pyrimidin-5-yl)oxy)benzamide]
100 to 1000 | CN(C)C(=O)c1csc(N2CCC3(CCN(c4ncncc4Oc4ccc(F)cc4-c4ccc(C#N)cc4C4CC4)C3)C2)n1 (stereo not shown) [Example 58, 2-(7-(5-((4′-cyano-2′-cyclopropyl-5-fluoro-[1,1′-biphenyl]-2-yl)oxy)pyrimidin-4-yl)-2,7-diazaspiro[4.4]nonan-2-yl)-N,N-dimethylthiazole-4-carboxamide]
< 100 | CC(C)N(C(=O)c1cc(F)ccc1Oc1cncnc1N1CCC2(CCC(N)(Cc3ccc(C#N)cc3)C2)C1)C(C)C (single isomer, unassigned) [Example 22B, 2-((4-(7-amino-7-(4-cyanobenzyl)-2-azaspiro[4.4]nonan-2-yl)pyrimidin-5-yl)oxy)-5-fluoro-N,N-diisopropylbenzamide]
< 100 | CC(C)c1ccccc1-c1cc(F)ccc1Nc1cncnc1N1CCC2(CCN(Cc3ccc4[nH]c(=O)[nH]c4c3)C2)C1 (stereo not shown) [Example 243, 5-((7-(5-((5-fluoro-2′-isopropyl-[1,1′-biphenyl]-2-yl)amino)pyrimidin-4-yl)-2,7-diazaspiro [4.4]nonan-2-yl)methyl)-1,3-dihydro-2H-benzo[d]imidazol-2-one]
< 100 | CC(C)(F)c1cc(F)ccc1-c1cc(F)ccc1Oc1cncnc1N1CC2(CN(CC3CCOCC3)C2)C1 [Example 31, 2-(5-((4′,5-difluoro-2′-(2-fluoropropan-2-yl)-[1,1′-biphenyl]-2-yl)oxy)pyrimidin-4-yl)-6-((tetrahydro-2H-pyran-4-yl)methyl)-2,6-diazaspiro[3.3]heptane]
< 100 | CC(C)CN1CC2(CCN(c3ncncc3Nc3ccc(F)cc3-c3ccccc3OC(C)C)CC2)C1 [Example 245, N-(5-fluoro-2′-isopropoxy-[1,1′-biphenyl]-2-yl)-4-(2-isobutyl-2,7-diazaspiro[3.5]nonan-7-yl) pyrimidin-5-amine]
< 100 | CNC(=O)c1csc(N2CCC3(CCN(c4ncncc4Oc4ccc(F)cc4-c4ccc(C#N)cc4C4CC4)C3)C2)n1 (stereo not shown) [Example 57, 2-(7-(5-((4′-cyano-2′-cyclopropyl-5-fluoro-[1,1′-biphenyl]-2-yl)oxy)pyrimidin-4-yl)-2,7-diazaspiro[4.4]nonan-2-yl)-N-methylthiazole-4-carboxamide]
100 to 1000 | CC(C)n1nccc1-c1cc(F)ccc1Oc1cncnc1N1CCC2(CCN(C(=O)C(N)C3CCCCC3)C2)C1 (single isomer, unassigned) [Example 206B, 2-amino-2-cyclohexyl-1-(7-(5-(4-fluoro-2-(1-isopropyl-1H-pyrazol-5-yl)phenoxy)pyrimidin-4-yl)-2,7-diazaspiro[4.4]nonan-2-yl)ethanone]
< 100 | CC(C)c1ncncc1-c1cc(F)ccc1Nc1cncnc1N1CC2(CN(CC3CCOCC3)C2)C1 [Example 244, N-(4-fluoro-2-(4-isopropylpyrimidin-5-yl)phenyl)-4-(6-((tetrahydro-2H-pyran-4-yl)methyl)-2,6-diazaspiro[3.3]heptan-2-yl) pyrimidin-5-amine]
≥ 1000 | CCOC(=O)c1csc(N2CCC3(CCN(c4ncncc4Oc4ccc(F)cc4-c4ccc(C#N)cc4C4CC4)C3)C2)n1 (stereo not shown) [Example 55, Ethyl 2-(7-(5-((4′-cyano-2′-cyclopropyl-5-fluoro-[1,1′-biphenyl]-2-yl)oxy)pyrimidin-4-yl)-2,7-diazaspiro[4.4]nonan-2-yl)thiazole-4-carboxylate]
100 to 1000 | CP(C)(=O)c1cc(F)ccc1Oc1cncnc1N1CCC2(CCN(Cc3ccc4[nH]c(=O)[nH]c4c3)C2)C1 (stereo not shown) [Example 17, 5-((7-(5-(2-(dimethylphosphoryl)-4-fluorophenoxy)pyrimidin-4-yl)-2,7-diazaspiro[4.4]nonan-2-yl)methyl)-1H-benzo[d]imidazol-2(3H)-one]
100 to 1000 | CC(C)N(C)C(=O)c1cc(F)ccc1Oc1cncnc1N1CCC2(CCN(Cc3cccc(N4CCOC4=O)c3)C2)C1 (stereo not shown) [Example 61, 5-fluoro-N-isopropyl-N-methyl-2-((4-(7-(3-(2-oxooxazolidin-3-yl)benzyl)-2,7-diazaspiro[4.4]nonan-2-yl)pyrimidin-5-yl)oxy)benzamide]
< 100 | O=c1[nH]c2ccc(CN3CCC4(CCN(c5ncncc5Oc5ccc(F)cc5-c5ccccc5C(F)(F)F)C4)C3)cc2[nH]1 (stereo not shown) [Example 50, 5-((7-(5-((5-fluoro-2′-(trifluoromethyl)-[1,1′-biphenyl]-2-yl)oxy)pyrimidin-4-yl)-2,7-diazaspiro[4.4]nonan-2-yl)methyl)-1H-benzo[d]imidazol-2(3H)-one]
< 100 | O=c1[nH]c2ccc(CN3CCC4(CCN(c5ncncc5Oc5ccc(F)cc5-c5ccccc5C5CC5)C4)C3)cc2[nH]1 (stereo not shown) [Example 49, 5-((7-(5-((2′-cyclopropyl-5-fluoro-[1,1′-biphenyl]-2-yl)oxy)pyrimidin-4-yl)-2,7-diazaspiro[4.4]nonan-2-yl)methyl)-1H-benzo[d]imidazol-2(3H)-one]
< 100 | CC(C)c1ncncc1-c1cc(F)ccc1Oc1cncnc1N1CCC2(CC(N3CCc4cc(F)ccc4C3)CO2)C1 (stereo not shown) [Example 157, 7-(5-(4-fluoro-2-(4-isopropylpyrimidin-5-yl)phenoxy)pyrimidin-4-yl)-3-(6-fluoro-3,4-dihydroisoquinolin-2(1H)-yl)-1-oxa-7-azaspiro[4.4]nonane]
